# Assay results reported in patent US7851444B2 (priority 2002, dated 2010).
# Tested on: CCI rat
# Details: in vivo
compound,measurement,value
CN1CC[C@]23c4c5ccc(O)c4O[C@H]2[C@@H](O)C=C[C@H]3[C@H]1C5 [morphine],antinociceptive effects in a rat model of neuropathic pain,produced antinociceptive effects
same,duration of antinociceptive effects,3 h
same,selectivity of antinociceptive effects between paws,selective for the ipsilateral over the contralateral paw
